Structures are written as SMILES.

19 compounds from US9988359B2, “Herbicidally active benzoic acid amides” (BAYER CROPSCIENCE AKTIENGESELLSCHAFT, priority 2014, dated 2018) can be followed below.

Holding throughout (test): Post-emergence herbicidal action against harmful plants
Common to all, as to assay type: in vivo

Experiment [1] concerns PHBPU Pharbitis purpureum. As to conditions: dosage 20 g/ha. Here is the method:
(§1) AMARE Amaranthus retroflexus PHBPU Pharbitis purpureum Seeds of monocotyledonous and dicotyledonous weed and crop plants are laid out in sandy loam in wood-fiber pots, covered with soil and cultivated in a greenhouse under good growth conditions. 2 to 3 weeks after sowing, the test plants are treated at the one-leaf stage. The compounds of the invention, formulated in the form of wettable powders (WP) or as emulsion concentrates (EC), are then sprayed onto the green parts of the plants in the form of an aqueous suspension or emulsion at a water application rate equating to 600 to 800 l/ha, with addition of 0.2% wetting agent. After the test plants have been left to stand in the greenhouse under optimal growth conditions for about 3 weeks, the action of the preparations is assessed visually in comparison to untreated controls (herbicidal action in percent (%): 100% activity=the plants have died, 0% activity=like control plants).

The test system of experiment [2] is AMARE Amaranthus retroflexus. As to conditions: dosage 80 g/ha, assessed visually after about 3 weeks, 100% = plants have died. The protocol: as §1
Another experiment concerns SETVI Setaria viridis. The following applies: dosage 80 g/ha, assessed visually after about 3 weeks, 100% = plants have died. The protocol: as §1, with “SETVI Setaria viridis” for “AMARE Amaranthus retroflexus PHBPU Pharbitis purpureum”
[3] abbreviates: visual scoring after about 3 weeks vs untreated controls (100% = plants have died, 0% = like control plants).
Setting [4] is: assessed visually after about 3 weeks, 100% = plants have died.

For the compound `CSc1c(C)ccc(C(=O)Nc2nnc(C)o2)c1C`, the “Activity against PHBPU” value in experiment [1] (setting [3]) is recorded as 60%.

For `CSc1c(C)ccc(C(=O)Nc2nnc(C)o2)c1Br`, in experiment [1] (setting [3]), the “Activity against PHBPU” value is 0%.

For `CSc1c(Br)ccc(C(=O)Nc2nnc(C)o2)c1C`, the “Activity against PHBPU” value in experiment [1] (setting [3]) worked out at 10%.

Turning to `CSc1c(C)ccc(C(=O)Nc2ncnn2C)c1C`, the “Activity against AMARE” value in experiment [2] is given as 90%.

`CSc1c(C)ccc(C(=O)Nc2ncnn2C)c1Br`: the “Activity against AMARE” value in experiment [2] was 70%.

As to `Cc1ccc(C(=O)Nc2ncnn2C)c(C)c1`, the “Activity against AMARE” value in experiment [2] was 0%.

Turning to `Cc1ccc(C(=O)Nc2ncnn2C)c(C)c1[S+](C)[O-]` (stereo not shown), the “Activity against AMARE” value in experiment [2] amounted to 90%.

As for `Cc1ccc(C(=O)Nc2ncnn2C)c(Br)c1[S+](C)[O-]` (stereo not shown), the “Activity against AMARE” value in experiment [2] is listed as 70%.

For the compound `Cc1ccc(C(=O)Nc2ncnn2C)c(C)c1S(C)(=O)=O`, in experiment [2], the “Activity against AMARE” value came out at 90%.

On to `Cc1c(C(=O)Nc2ncnn2C)ccc(Cl)c1S(C)(=O)=O`, for which the “Activity against AMARE” value in experiment [2] was found to be 60%.

In the case of `Cc1ccc(C(=O)Nc2ncnn2C)c(Br)c1S(C)(=O)=O`, the “Activity against AMARE” value in experiment [2] came to 60%.

On to `CSc1c(C)ccc(C(=O)Nc2nonc2C)c1C`, for which the “Activity against SETVI” value in the experiment on SETVI Setaria viridis is reported as 0%.

In the case of `CSc1c(Cl)ccc(C(=O)Nc2nonc2C)c1C`, the “Activity against SETVI” value in the experiment with SETVI Setaria viridis worked out at 0%.

As for `Cc1nonc1NC(=O)c1ccc(C(F)(F)F)c(S(C)(=O)=O)c1C`, the “Activity against SETVI” value with SETVI Setaria viridis is on record as 40%.

Turning to `Cc1nonc1NC(=O)c1ccc(C#N)c(S(C)(=O)=O)c1C`, the “Activity against SETVI” value with SETVI Setaria viridis came out at 0%.

In the case of `COSc1c(C)ccc(C(=O)Nc2nnc(C)o2)c1C`, the “Activity against PHBPU” value in experiment [1] (setting [4]) was 60%.

With `COSc1c(C)ccc(C(=O)Nc2nnc(C)o2)c1Br`, the “Activity against PHBPU” value in experiment [1] (setting [4]) came to 40%.

As to `Cc1ccc(C(=O)Nc2nonc2C)c(C)c1S(C)(=O)=O` [drawing 24], the “Activity against SETVI” value with SETVI Setaria viridis is listed as 40%.

As to `Cc1ccc(C(=O)Nc2nonc2C)c(C)c1S(C)(=O)=O` [drawing 27], the “Activity against SETVI” value in the experiment on SETVI Setaria viridis is listed as 80%.
